Results from patent US12624019B2, “Indazole derivative, and preparation method therefor and use thereof” (Leadingtac Pharmaceutical (Shaoxing) Co., Ltd., priority 2020, dated 2026).

Tests used:
[1] = Pharmacokinetic study in mice; type: in vivo, SD mice
Method: The following experimental scheme was used to study the pharmacokinetic behavior of the compound of the present invention in mice and evaluate its pharmacokinetic characteristics.
Experimental scheme: 3 healthy SD mice, male, weighing […], were given 100 mg/kg compound by gavage with a volume of 10 mL/kg, prepared with […] (w/v). Before the test, they were fasted for 12 hours and freely drank water. Food was uniformly consumed 4 h after administration.
Three healthy SD mice, male, weighing […], were given 1 mg/kg compound intravenously with a volume of 5 mL/kg, prepared with 5% DMSO/15% solutol %80% PBS (w/v). Before the test, they were fasted for 12 hours and freely drank water. Food was uniformly consumed 4 h after administration.
0.1 mL of venous blood was taken through the submaxillary venous plexus of mice at 0.08 h, 0.25 h, 0.5 h, 1 h, 2 h, 4 h, 8 h, 24 h after gavage administration and 0.08 h, 0.25 h, 0.5 h, 1 h, 2 h, 4 h, 8 h, 24 h after intravenous administration, placed in a heparin test tube, centrifuged at 11000 rpm for 5 min, and plasma was separated, the concentration of compounds in plasma was determined by liquid chromatography-tandem mass spectrometry.

[2] = biological target: T1, IRAK4 kinase (Homo sapiens, UniProt Q9NWZ3); experiment: IRAK4 kinase activity test (KinEASE-STK HTRF kit); type: biochemical; conditions: IRAK4 kinase inhibition, 7 μM ATP, 37° C. 120 min
T1 sequence (Q9NWZ3 1-460): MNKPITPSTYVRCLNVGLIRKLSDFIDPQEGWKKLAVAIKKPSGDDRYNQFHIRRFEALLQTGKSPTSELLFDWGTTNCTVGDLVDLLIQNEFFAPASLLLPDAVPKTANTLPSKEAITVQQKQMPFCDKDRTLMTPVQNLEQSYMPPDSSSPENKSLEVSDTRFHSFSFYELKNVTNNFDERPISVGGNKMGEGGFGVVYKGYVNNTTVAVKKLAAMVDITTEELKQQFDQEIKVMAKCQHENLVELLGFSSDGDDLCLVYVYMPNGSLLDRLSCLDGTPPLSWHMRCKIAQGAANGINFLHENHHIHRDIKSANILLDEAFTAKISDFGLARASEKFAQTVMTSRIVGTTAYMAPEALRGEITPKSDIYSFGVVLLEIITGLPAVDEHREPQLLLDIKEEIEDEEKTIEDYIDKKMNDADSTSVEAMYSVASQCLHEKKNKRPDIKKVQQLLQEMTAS
Method: KinEASE-STK Si serine/threonine kinase kit (Cisbio) was used to detect the inhibitory effect of the compound on IRAK4 kinase activity. The specific method was: the compound was dissolved in dimethyl sulfoxide, and then it was diluted with the buffer solution of the kit by equal gradient to make the final concentration range of the tested compound in the reaction system 10000 nM-0.038 nM, then 2.5 nM kinase, 1 μM biotinylated polypeptide substrate and 7 μM adenosine triphosphate (ATP) were added in sequence and incubated at 37° C. for 120 min. Subsequently, anti-phosphorylated serine/threonine antibody coupled with europium element compound and modified XL665 streptavidin were added to the reaction system to terminate the reaction. After incubating at room temperature for 1 h, the fluorescence intensity of each well at the emission wavelength of 620 nm and 665 nm and the excitation wavelength of 337 nm was determined in HTRF mode on the microplate reader EnVision (PerkinElmer), the ratio value was calculated using the formula Ratio=(665 nm/620 nm)×10^4. By comparing with the fluorescence intensity ratio of the control group, the inhibition rate of the compound at each concentration was calculated, and then the IC50 value of the compound was obtained by fitting the nonlinear curve with the logarithmic concentration-inhibition rate by GraphPad Prism 7.

[3] = male, SD, mouse, po, gavage administration 100 mg/kg, plasma

CC(C)(O)c1cc2nn(C3CCN(CCCC4CCN(c5ccc6c(c5)C(=O)N(C5CCC(=O)NC5=O)C6=O)CC4)CC3)cc2cc1NC(=O)c1cccc(C(F)(F)F)n1 (stereo not shown) [Example 6, N-(2-(1-(3-(1-(2-(2,6-dioxopiperidin-3-yl)-1,3-dioxoisoindolin-5-yl)piperidin-4-yl)propyl)piperidin-4-yl)-6-(2-hydroxyprop-2-yl)-2H-indazol-5-yl)-6-(trifluoromethyl) pyridinecarboxamide]
CL_pred ([1]; intravenous injection 1 mg/kg): 6.7 mL/min/kg | Vss_pred ([1]; intravenous injection 1 mg/kg): 4.6 L/kg | AUC(0-t) ([1]; male, SD, mouse, intravenous injection 1 mg/kg, plasma): 2150 ng·h/mL | bioavailability ([1]; male, SD, mouse, plasma, po, gavage 100 mg/kg vs intravenous 1 mg/kg): 14.2% | AUC(0-t) [1, 3]: 30500 ng·h/mL | Cmax [1, 3]: 1860 ng/mL | IC50 [2]: 55.7 nM
